Results as given in patent US20230054976A1, “METHODS FOR INHIBITION OF ALPHA-SYNUCLEIN mRNA USING SMALL MOLECULES” (The Scripps Research Institute, priority 2019, published 2023).
“Also recorded” adds a separate entry of the source.

Tested on: SNCA mRNA
Experiment: ASO-Bind-Map in cells (gapmer ASO, RT-qPCR)
Format: cell-based, human
Conditions: SH-SY5Y cells, gapmer 200 nM
Method: Mapping Synucleozid's binding site in cells with ASO-Bind-Map. SH-SY5Y cells were treated with vehicle (DMSO) or Synucleozid at 60% confluency overnight and were then transfected with a gapmer ASO (200 nM) with Lipofectamine RNAiMAX (Invitrogen) according to the manufacturer's instructions. Mock samples were generated by treating cells with transfection reagent lacking oligonucleotide. RNA extraction, cDNA synthesis and RT-qPCR were performed as described above after 48 h. Primers for SNCA mRNA in this experiment cover sequences upstream and downstream of the IRE; forward primer: [NT]; reverse primer [NT].

## N=C(N)c1ccc(Nc2ccc(-c3cc4ccc(C(=N)N)cc4[nH]3)cc2)cc1 [Synucleozid A]
  effect on SNCA mRNA cleavage by ASO(29-39): no effect; also recorded: Protection is not observed
  effect with the control ASO: no effect
read-out: EC50 for inhibition of SNCA mRNA cleavage by ASO(1-10)
  EC50: 1000 nM
